The values below come from patent publication US20260176328A1, “ANTIBODY COMPOSITIONS AND METHODS FOR DISRUPTING NONTUBERCULOUS MYCOBACTERIA BIOFILMS” (priority 2022, published 2026).

SMILES strings stand for the structures.

Details in all cases: 2 hr; for Percent killing of NRel: NRel induced with 5 μg HuTipMab
One test relates to M. avium. In words: Antibiotic mediated killing of planktonic and newly released (NRel) M. avium.
The test system of test [1] is M. abscessus clinical isolate 1. In words: Antibiotic mediated killing of planktonic and NRel M. abscessus clinical isolate 1.
Procedure: (§1) To determine relative susceptibility of planktonic NTM to amikacin, biofilms were prepared and gently washed twice with DPBS as described above, then treated with 200 μL of either: 7H9 (growth control); 7H9+0.5 μg amikacin/mL for M. abscessus 19977, +12 μg amikacin/mL for M. avium, +0.7 μg amikacin/mL for M. abscessus clinical isolate 1 or +lug amikacin/mL for M. abscessus clinical isolate 3. […] Treated biofilms were incubated statically at 37° C. in 5% CO2 and humidity for 2 hr, after which 150 μL was collected from each well and dispensed into 1.5 mL Eppendorf microcentrifuge tubes, then pulse-vortexed with two sterile 3 mm glass beads (Fisher Scientific International, Inc., Hampton, NH) to disrupt aggregates. Suspensions were gently sonicated for 2 min in a waterbath sonicator (Ultrasonic Bath 2.8 L, Fisher Scientific) to further disrupt any aggregates. After sonication, samples were diluted and plated on Middlebrook 7H10 agar and incubated at 37° C. with 5% CO2 in a humidified atmosphere to assess relative CFU.
(§2) To determine azithromycin-mediated killing, the same protocol as above was used with one adjustment. […] Wells were treated with 200 μL of either: 7H9 (growth control); 7H9+5 μg azithromycin/mL for M. abscessus 19977, +16 μg azithromycin/mL for M. avium, +10 μg azithromycin/mL for M. abscessus clinical isolate 1, or +8 μg azithromycin/mL for M. abscessus clinical isolate 3. […] Percent killing was then calculated as [growth control CFU/mL-NRel or planktonic CFU/mL]/[growth control CFU/mL].
Test [2] relates to M. abscessus clinical isolate 3. In words: Antibiotic mediated killing of planktonic and NRel M. abscessus clinical isolate 3.
Procedure: as §1, §2
The test system of a further test is M. abscessus 19977. In words: Antibiotic mediated killing of planktonic and newly released (NRel) M. abscessus 19977.

Procedure for M. abscessus 19977: as §1, §2
Procedure for M. avium: as §1, §2

Take `NCC[C@H](O)C(=O)N[C@@H]1C[C@H](N)[C@@H](O[C@H]2O[C@H](CN)[C@@H](O)[C@H](O)[C@H]2O)[C@H](O)[C@H]1O[C@H]1O[C@H](CO)[C@@H](O)[C@H](N)[C@H]1O` [amikacin, Amikacin]: the “Percent killing of NRel” value is recorded as 41% in the test on M. avium (12 μg amikacin/mL (¼ MIC)), 45% in test [1] (0.7 μg amikacin/mL), 47% in test [2] (lug amikacin/mL) and 61% in the test with M. abscessus 19977 (0.5 μg amikacin/mL (¼ MIC)). The “Percent killing of planktonic bacteria” value in the test with M. avium (12 μg amikacin/mL (¼ MIC)) turned out to be 17%; in test [1] (0.7 μg amikacin/mL), 28%; in test [2] (lug amikacin/mL) it was 21%; in the test on M. abscessus 19977 (0.5 μg amikacin/mL (¼ MIC)), 23%.
With `CC[C@H]1OC(=O)[C@H](C)[C@@H](O[C@H]2C[C@@](C)(OC)[C@@H](O)[C@H](C)O2)[C@H](C)[C@@H](O[C@@H]2O[C@H](C)C[C@H](N(C)C)[C@H]2O)[C@](C)(O)C[C@@H](C)CN(C)[C@H](C)[C@@H](O)[C@]1(C)O` [azithromycin, Azithromycin], the “Percent killing of NRel” value is given as 36% with M. avium (16 μg azithromycin/mL (½ MIC)), 47% in test [1] (10 μg azithromycin/mL), 45% in test [2] (8 μg azithromycin/mL) and 42% in the test with M. abscessus 19977 (5 μg azithromycin/mL (½ MIC)). Moreover, the “Percent killing of planktonic bacteria” value in the test on M. avium (16 μg azithromycin/mL (½ MIC)) is listed as 19%; in test [1] (10 μg azithromycin/mL), 28%; in test [2] (8 μg azithromycin/mL) it was 25%; with M. abscessus 19977 (5 μg azithromycin/mL (½ MIC)) it was 20%.
